Series [1] deals with apomorphine-induced vomiting in dogs. The series can be described thus: Apomorphine antagonism in dogs (vomiting). Format: in vivo, Adult purebred Beagles. Here is the method: Adult purebred Beagles of either sex from our own stock were used.
Four dogs were used for each dose level of the drug, which was injected subcutaneously at the back of the neck. At different times after the drug administration the dogs were then challenged with apomorphine according to an "up and down"-schedule using the dose-range 25-400 μg/kg i.v. geometrically spaced. […] In this way it was possible to estimate at which level of apomorphine the dogs were protected at a given time. The dogs were fed half an hour before testing to secure an easy vomiting act.

In series [2] the test system is methylphenidate-induced stereotyped gnawing. The series can be described thus: Methylphenidate antagonism in mice (stereotyped gnawing). Format: in vivo, male mice (NMRI/BOM SPF). The source says: (§1) Alpha-clopenthixol and its decanoic acid ester have been tested for neuroleptic activity with standard reliable test methods. In the testing alpha- and beta-clopenthixol (alpha-CPT and beta-CPT) have been compared with a sample of clopenthixol (CPT) containing 34% alpha-CPT as determined by I.R. spectrophotometry.
Pedersen V. and A. V. Christensen: "Antagonism of methylphenidate-induced stereotyped gnawing in mice". Acta pharmacol. et toxicol. 1972, 31, 488-496.
Male mice (NMRI/BOM SPF, 18-25 g) were given an intraperitoneal dose of test compound. Two hours later 60 mg/kg of methylphenidate hydrochloride were injected subcutaneously, and immediately thereafter the animals were placed in cages, 2 mice in each cage, for 1 hour. The cages which during the experiment were placed on corrugated paper, are described under apomorphine antagonism on page 4. In this situation control mice, when given this dose of methylphenidate, will bite the corrugated paper (gnaw-compulsion). All compounds were tested at 5 dose levels using 5 pairs of mice per dose. Percentage non-biters was plotted on log.-probit paper against dose and approximate ED50 values were read from the diagrams.

Series [3] concerns apomorphine-induced gnaw-compulsion. Nature of the series: Apomorphine antagonism in rats (gnaw-compulsion). To be noted: for ED50: apomorphine 10 mg/kg s.c. 2 h later. Format: in vivo, male rats (Wistar/Af/Han/Mo)(Han 67) SPF.
From the text: as §1
The test method used is a slight modification of the test described by Janssen, P.A.J., Niemegeers, C.J.E. and Schellekens, K.H.L., Arzneimittel-Forschung, 1965, 15, 104-117. Male rats (Wistar/Af/Han/Mo)(Han 67) SPF, 230-270 g) were given test substance intraperitoneally (9 animals per group). Two hours later apomorphine (10 mg/kg) was injected subcutaneously and the animals were placed in individual cages for one hour. A cage consisted of a 30 cm high perspex box (12 × 25 cm), without bottom and lid, which during the experiment was placed on corrugated paper. […] Percentage non-biters was plotted on log-probit paper against dose and the ED50 was read from the diagram.

Series [4] concerns mice. The series can be described thus: Acute toxicity upon intravenous injection in mice. Format: in vivo, male mice (NMRI/BOM SPF). The settings on record: i.v.; for LD50: fasted 24 hours. Here is the method: (§2) Acute toxicity upon intravenous injection has been tested using groups of five male mice (NMRI/BOM SPF, 18-25 g), fasted for 24 hours. Three or four dose-levels were needed to determine LD50 values according to Miller and Tainter. Estimation of the ED50 and its error by means of logarithmicprobit graph paper.

The test system of series [5] is human beings. Nature of the series: Administration to human beings (neuroleptic action). Format: in vivo. To be noted: single intramuscular injection of about 20 - 100 mg in a light vegetable oil. The source says: Alpha-clopenthixol or an ester thereof and the non-toxic acid addition salts thereof (in the following collectively called "active ingredients") may be administered to animals such as dogs, cats, horses, sheeps or the like, including human beings, both orally and parenterally, and may be used for example in the form of tablets, capsules, powders, syrups or in the form of the usual sterile solutions for injection. Results upon administration to human beings have been very gratifying.
Results upon administration to human beings of the compositions of the invention have been very gratifying. Preferably, however, the compositions are in the form of sterile solutions or suspensions for injection, and in a preferred embodiment of the invention injectable solutions may be prepared from a non-toxic injectable fat or oil, e.g. light vegetable oil, sesam oil, olive oil, arachis oil or ethyl oleate, and they may additionally contain gelling agents, e.g. aluminium stearate, to delay absorption within the body. Such oily solutions have a very prolonged activity when […] intramuscularly, and satisfactory neuroleptic action has been produced by a single intramuscular injection of about 20 - 100 mg of Lu 8- 008 dissolved in a light vegetable oil for as long as 2-4 weeks.

The nature of series [6]: Acute toxicity upon intravenous injection in mice. Format: in vivo, male mice (NMRI/BOM SPF). To be noted: mouse, in vivo, iv, fasted 24 hours. Here is the method:
as §2

The mark [7] stands for this setting: dogs, 10 mg/kg s.c., aqueous solution.
Setting [8] is: dogs, 10 mg/kg s.c., depot-preparation.
The mark [9] stands for this setting: dogs, both dose levels (10 and 20 mg/kg s.c.).

Structures can show the parent of a compound that is named as a salt. Where two headings read alike, the source gives them in different places.

Regarding `Cl.Cl.OCCN1CCN(CCC=C2c3ccccc3Sc3ccc(Cl)cc32)CC1` [CPT 2 HCl, 2-chloro-9-[3'-(N'-2-hydroxyethylpiperazino-N)-propylidene]-thiaxanthene], in series [1] (dogs, 10 mg/kg s.c.), the “duration of protection against apomorphine” value is 3 days. Also, in series [1] (setting [7]), the “duration of heavy sedation” value was “about 24 hours”. The “time p.i. at which maximal protection against apomorphine was afforded” value in series [1] (setting [7]) was determined as 4 h. For the same molecule, the “maximal level of protection against apomorphine (times threshold)” value in series [1] (dogs, 10 mg/kg s.c., aqueous solution, 4 hours p.i.) is “about 16 times threshold”. Besides, in series [1] (dogs, 10 mg/kg s.c., aqueous solution, day 3), the “protection against apomorphine at day 3” value is listed as “restricted to the threshold dose of apomorphine”. In series [1] (dogs, 10 mg/kg s.c., aqueous solution, day 4), the “protection against apomorphine at day 4” value was “returned to control level”. The sedation entry in series [1] (dogs, 10 mg/kg s.c., aqueous solution, from 4 h p.i.) is reported as “heavily sedated”. Besides, the “% Non-biters” value in series [2] (0.63 mg/kg i.p.) is reported as 20%; in series [2] (1.25 mg/kg i.p.) it was 60%; in series [2] (2.5 mg/kg i.p.), 80%; in series [2] (5 mg/kg i.p.) it was 100%; in series [2] (10 mg/kg i.p.) it was 100%; in series [3] (2.5 mg/kg i.p.), 33%. In addition, the entries for the “% Non-biters” value in series [3] (5 mg/kg i.p.), in series [3] (10 mg/kg i.p.) and in series [3] (20 mg/kg i.p.) were 44%, 67% and 78%, respectively. The “ED50 (approximate)” value in series [2] (i.p., methylphenidate hydrochloride 60 mg/kg s.c. 2 h later) was found to be 1.2 mg/kg i.p. In series [3] (i.p.), the ED50 was 5.5 mg/kg i.p. In series [4], this molecule returned an LD50 of 111 ± 10 mg/kg i.v.

Turning to `CCCCCCCCCC(=O)OCCN1CCN(CCC=C2c3ccccc3Sc3ccc(Cl)cc32)CC1` [Lu 8-008, alpha-isomer of the decanoic acid ester of 2-chloro-9-[3'(N'-2-hydroxyethylpiperazino-N)-propylidene]-thiaxanthene], the “duration of protection against apomorphine” value was determined as 14 days in series [1] (dogs, 10 mg/kg s.c.) and 3 weeks in series [1] (dogs, 20 mg/kg s.c., depot-preparation). In addition, the “maximal level of protection (times threshold dose of apomorphine)” value in series [1] (dogs, 10 mg/kg s.c., 5% solution) was 2 times threshold; in series [1] (dogs, 10 mg/kg s.c., 10% solution) it was 4 times threshold. The sedation result was “at no time displayed any signs of sedation” in series [1] (setting [8]) and “slightly sedated” in series [1] (dogs, 20 mg/kg s.c., first week). For the same molecule, in series [1] (setting [8]), the “time course of protection level” value is “reached smoothly during the first week p.i., and then declined smoothly during the second week”. Moreover, in series [1] (dogs, 10 mg/kg s.c., depot-preparation, 5% or 10% solution), the “prolongation of the protection against apomorphine, in words” value is reported as “considerable prolongation of the protection against apomorphine”. Besides, the “maximal level of protection (times threshold)” value in series [1] (dogs, 20 mg/kg s.c., during the first week) was 8 times threshold. Also, in series [1] (setting [9]), the “duration of protection, 10% solution compared with 5% solution” value was “the duration was equal”. Besides, in series [1] (setting [9]), the “maximal protection, 10% solution compared with 5% solution” value was “higher and/or more persisting maximal protection against apomorphine”. For the same molecule, the “duration of satisfactory neuroleptic action” value in series [5] is listed as 2-4 weeks.

With `OCCN1CCN(CCC=C2c3ccccc3Sc3ccc(Cl)cc32)CC1` [alpha-CPT 2 HCl, alpha-isomer of 2-chloro-9-[3'-(N'-2-hydroxyethylpiperazino-N)-propylidene]-thiaxanthene], the “% Non-biters” value is 20% in series [2] (0.31 mg/kg i.p.); 60% in series [2] (0.63 mg/kg i.p.); 60% in series [2] (1.25 mg/kg i.p.); 100% in series [2] (2.5 mg/kg i.p.); 100% in series [2] (5 mg/kg i.p., 5 mg/kg); 11% in series [3] (1.25 mg/kg i.p.). Further, the “% Non-biters” value in series [3] (2.5 mg/kg i.p.) worked out at 44%; in series [3] (5 mg/kg i.p.) it was 100%; in series [3] (10 mg/kg i.p., 10 mg/kg), 100%. Further, the ED50 in series [2] (Mus musculus, ip, methylphenidate hydrochloride 60 mg/kg s.c. 2 h later, read-out: ED50 (approximate)) came out at 0.65 mg/kg; in series [3] (Rattus norvegicus, ip, read-out: ED50) it was 2.4 mg/kg. Moreover, in series [6], the LD50 amounted to 105 ± 10 mg/kg.

Regarding `CN1CCc2cccc3c2[C@H]1Cc1ccc(O)c(O)c1-3` [apomorphine], in series [1] (Canis lupus familiaris, iv, Beagle dogs, read-out: threshold-dose of apomorphine for provoking vomiting), the minimal effective dose came out at 0.025 mg/kg.

In the case of `OCCN1CCN(CCC=C2c3ccccc3Sc3ccc(Cl)cc32)CC1` [alpha-CPT, alpha-isomer of 2-chloro-9-[3'-(N'-2-hydroxyethylpiperazino-N)-propylidene]-thiaxanthene], in series [2] (i.p., vs CPT (containing 34% alpha-CPT)), the “activity relative to CPT” value is reported as “about twice as active as CPT”. The “activity relative to CPT (times more active)” value in series [3] (i.p., vs CPT) is 2- 3 times.

Turning to `OCCN1CCN(CCC=C2c3ccccc3Sc3ccc(Cl)cc32)CC1` [beta-CPT, beta-isomer of 2-chloro-9-[3'-(N'-2-hydroxyethylpiperazino-N)-propylidene]-thiaxanthene], the “inhibition of methylphenidate-induced compulsive gnawing, in words” value is recorded as “complete inhibition” in series [2] (20 mg/kg i.p.); “only partial inhibition” in series [2] (doses higher and lower than 20 mg/kg i.p.). For the same molecule, in series [3] (doses as high as 80 mg/kg i.p.), the “apomorphine antagonism, in words” value is “almost completely inactive”. For the same molecule, in series [4] (vs alpha-isomer and the mixture), the “acute toxicity compared, in words” value is “somewhat less toxic than the alpha-isomer and the mixture”.

As to `OCCN1CCN(CCC=C2c3ccccc3Sc3ccc(Cl)cc32)CC1` [beta-CPT 2 HCl], the “% Non-biters” value in series [2] (5 mg/kg i.p., 5 mg/kg) worked out at 60%; in series [2] (10 mg/kg i.p.) it was 20%; in series [2] (20 mg/kg i.p.), 100%; in series [2] (40 mg/kg i.p.), 80%; in series [2] (80 mg/kg i.p.), 80%; in series [3] (10 mg/kg i.p., 10 mg/kg), 11%. Moreover, the “% Non-biters” value was determined as 0% in series [3] (20 mg/kg i.p.), 11% in series [3] (40 mg/kg i.p.) and 11% in series [3] (80 mg/kg i.p.). In series [3] (i.p.), the ED50 result is reported as “none”. Besides, the LD50 in series [4] came out at 134 ± 10 mg/kg i.v.

(Values after patent publication US4038395A, “Compositions of and method of treating with the alpha-isomer of 2-chloro-9-[3'-(N'-2-hydroxyethylpiperazino-N)-propylidene]-thiaxanthene , carboxylic acid esters thereof and acid addition salts of these compounds” (Kefalas A/S, priority 1973, dated 1977).)
